These results are taken from patent US20210361578A1, “MEK1/2 INHIBITOR-LOADED MICROPARTICLE FORMULATION” (University of Iowa Research Foundation, priority 2020, published 2021).

Data set [1] can be described thus: Pharmacokinetics and organ levels of PD98059 following IV injection in healthy rats. Format: in vivo. The protocol:
1: Pharmacokinetics of PD98059. Rats were anaesthetized using urethane and a canula was inserted in the femoral vein. A solution of PD98059 dissolved in 10% Tween 80 in sterile 1× DPBS at a concentration of 0.5 mg/ml (total volume 2 ml) was administered slowly by intravenous infusion. After 5, 15, 30, 60, 180, and 360 minutes, blood samples were withdrawn from rats. Major organs (liver, kidney, brain, and heart) were collected from rats after 1 and 3 hours (n=3/time point).
All blood samples were collected into 4 ml BD Vacutainer® blood collection tubes (K2-EDTA, Becton, Dickinson, and Company, Franklin Lakes, N.J.). Plasma samples were collected by centrifugation (3,300×g, 15 min), and frozen at −80° C. until analyzed. Plasma samples were thawed on ice, and a volume of 100 μl of plasma was transferred to a 15 ml tube, and spiked with 15 μl of the internal standard (IS) solution (10 μg/ml of 7-hydroxyfiavone in methanol). Collected organs were rinsed in PBS, then frozen at −80° C. For organs, a portion of each organ (200-400 mg) was accurately weighed and homogenized (Fisher Brand Bead Mill 4 Homogenizer, Hampton, N.H.) in 250 μl of 1× DPBS using 20-25 2.5 mm ceramic beads per sample, and spiked with 15 μl of the internal standard (IS) solution. One ml of cold acetonitrile was added to 100 μl of plasma samples or 400 μl of the tissue homogenate and vortexed for 1 min. The samples were kept on ice for 15 min to precipitate the proteins, then the tubes were centrifuged (4° C., 3,300×g, 10 min) and the supernatant was collected, and evaporated under nitrogen stream.
In the case of protocols 1 and 2, the residue in each tube was then dissolved in the mobile phase (described in the HPLC section below), centrifuged (12,000×g, 5 min), and the supernatant was injected in the HPLC and analyzed by the method described below. A standard curve was prepared using plasma and tissues collected from naive rats. These plasma or tissue homogenate samples were spiked with 15 μl of the IS solution as mentioned above, in addition to 15 μl of standard solutions of PD98059 in methanol at different concentrations. Pharmacokinetic parameters were calculated using PK Solver.
An Agilent HPLC workstation was used for sample analysis (Agilent Infinity 1100, Santa Clara, Calif.) that consisted of an Agilent quaternary pump, automatic injection port, and Agilent diode array detector (Agilent Corporation, Santa Clara, Calif.). A RP-C18 column was used for analysis (Waters Symmetry, 5 μm pore size, 4.6 mm×150 mm, Milford, Mass.). The mobile phase consisted of methanol: water 70:30 with 0.1% v/v trifluoroacetic acid, and the flow rate was 1 ml/min at room temperature. The detection wavelength was set to 275 nm.

The nature of data set [2]: In vitro drug release of PD98059-loaded microparticles (Examples 1/3, centrifugation and medium replacement). The class given is physicochemical. The settings on record: PD98059 powder; DPBS with 0.4% w/v Tween 80, 37° C. The protocol:
A weighed amount of the microparticles was suspended in 5 ml of the release medium (Dulbecco's phosphate buffered saline, DPBS, Life Science, Waltham, Mass.) that contains 0.4% w/v Tween 80 at an amount equivalent to 0.065 mg microparticles in 50 ml tube (n=3). The tubes were placed in an orbital shaker (New Brunswick Scientific, Edison, N.J.) operating at 300 rpm and 37° C. At pre-determined time points, the tube was centrifuged (1000×g for 5 min) and the whole volume of the release medium (5 ml) was removed and replaced completely with fresh medium in which the pellet was re-suspended. The concentration of PD98059 was measured in the samples using the HPLC method described below. The standard curve range was 0.125-10 μg/ml, and the r^2 value was 0.9998.
An Agilent Infinity 1100 HPLC (Santa Clara, Calif.) was used for to analyze PD98059 content and release of the microparticles. […] The flow rate used was 1 ml/min at room temperature, and the wavelength at which PD98059 was detected at 275 nm.
A weighed amount of the microparticles was suspended in 5 ml of the release medium (Dulbecco's phosphate buffered saline, DPBS, Life Science, Waltham, Mass.) that contains 0.4% w/v Tween 80 at an amount equivalent to 0.065 mg microparticles in 50 ml tube (n=3). […] The concentration of PD98059 was measured in the samples using the HPLC method described below. […]

Data set [3] has as its system PVN neuronal excitation and sympathetic nerve activity. The settings on record: cited from earlier work.
For data set [4], the system named is plasma levels of norepinephrine; PVN p-ERK1/2. The settings on record: HF rats, cited from earlier work.
The next data set concerns MEK. Particulars: Dudley et al.; cited from earlier work.

“Also recorded” adds a separate entry of the source.

For the compound `COc1cccc(-c2cc(=O)c3ccccc3o2)c1N` [PD98059], the AUC0-t in data set [1] (IV injection of 1 mg of PD98059 in solution, non-compartmental analysis) was found to be 2378.7 ng·h/mL. In data set [1] (healthy rats, IV 1 mg), the “brain PD98059 level at 1 hour” value is given as “approximately 410 ng/g” and the “brain PD98059 level at 3 hours” value is recorded as about 76 ng/g. Further, the “drug levels in major organs (liver, kidney, brain, heart)” value in data set [1] (healthy rats, IV 1 mg, 1 and 3 hours) was “drug levels in the liver and kidney were comparatively higher than those in the brain and heart”. Also, in data set [1] (rats), the “crossing of the blood brain barrier” value is listed as “a significant portion of the drug crossed the blood brain barrier; also recorded: found to cross the blood brain barrier” and the elimination half-life entry is “above 1 hour”. Also, the “elimination half-life in plasma” value in data set [1] (rats, IV injection of PD98059 solution, 1 mg) is 1.22 h. The “pharmacokinetic model that fits the data” value in data set [1] (rats, IV, PK Solver) is recorded as 2-compartment model. The “time for 80% of the unencapsulated drug to dissolve in the release medium” value in data set [2] amounted to 24 h. Moreover, in data set [3] (HF rats, 1-h ICV infusion, compared to SHAM or untreated animals), the heart rate result was “significantly decreased”. In addition, the “PVN neuronal excitation and (renal) sympathetic nerve activity” value in data set [3] (heart failure rats, 1-hour ICV infusion) is “decreased; also recorded: inhibited”. In addition, the plasma norepinephrine levels entry in data set [4] (ICV infusion for 4 weeks) is listed as “significant reduction; also recorded: reduced; also recorded: normalized”. In addition, the “PVN p-ERK1/2” value in data set [4] (long term ICV infusion) is “successfully decreased”. Moreover, the “in vitro activity of MEK once PD98059 was removed from the medium” value in the data set on MEK is “fully and instantaneously restored”.
